Laboratory results taken from patent US12252524B2, “GIP/GLP1 co-agonist compounds” (Eli Lilly and Company, priority 2018, dated 2025).
Numbered stars: 1 amine (or outer) side, 2 acyl side, 3 side chain; on linkers, the order of the positions; unused ones are H or OH. Square brackets hold non-standard residues; d marks the D form. Side chains are listed from the residue outwards. Peptide text beside a SMILES is read from it. * marks the point of attachment. C20 diacid = O=C(O)CCCCCCCCCCCCCCCCCCC(=O)*; αMePhe(2-F) = C[C@](N)(Cc1ccccc1F)C(=O)O; γGlu = O=C(O)[C@H](CCC(=O)[*:2])N[*:1]; αMeY = C[C@](N)(Cc1ccc(O)cc1)C(=O)O; αMeF = C[C@](N)(Cc1ccccc1)C(=O)O; 4Pal = N[C@@H](Cc1ccncc1)C(=O)O; αMeL = CC(C)C[C@](C)(N)C(=O)O; Orn = NCCC[C@H](N)C(=O)O; AEEA = NCCOCCOCC(=O)O; Aib = CC(C)(N)C(=O)O

Assays:
[1] = biological target: human GLP-1 receptor (GLP-1R) (Homo sapiens, UniProt P43220); assay: cAMP pharmacological functional assay in presence of casein, hGLP-1R; format: cell-based; conditions: HEK293 cells expressing hGLP-1R, 0.1% Casein, geometric mean; read-out: hGLP1R cAMP Rel EC50 nM (SEM, n)
Sequence of human GLP-1 receptor (GLP-1R) (P43220 24-463): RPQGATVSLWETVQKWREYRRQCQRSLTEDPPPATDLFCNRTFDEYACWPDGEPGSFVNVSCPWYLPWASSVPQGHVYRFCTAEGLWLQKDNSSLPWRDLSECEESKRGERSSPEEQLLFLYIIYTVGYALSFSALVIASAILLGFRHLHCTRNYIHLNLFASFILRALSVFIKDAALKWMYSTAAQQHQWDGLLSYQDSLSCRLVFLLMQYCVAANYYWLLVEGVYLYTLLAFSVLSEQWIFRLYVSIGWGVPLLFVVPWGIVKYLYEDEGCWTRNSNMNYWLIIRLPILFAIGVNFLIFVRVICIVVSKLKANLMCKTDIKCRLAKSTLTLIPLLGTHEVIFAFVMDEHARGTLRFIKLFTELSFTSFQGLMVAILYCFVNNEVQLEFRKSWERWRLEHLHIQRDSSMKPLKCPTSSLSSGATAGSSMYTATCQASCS

[2] = biological target: T1, gastric inhibitory peptide receptor (GIPR) (Homo sapiens, UniProt P48546); assay: cAMP pharmacological functional assay in presence of casein, hGIPR; format: cell-based; conditions: HEK293 cells expressing hGIPR, 0.1% Casein, geometric mean; read-out: hGIPR cAMP Rel EC50 nM (SEM, n)
T1 sequence (P48546 22-466): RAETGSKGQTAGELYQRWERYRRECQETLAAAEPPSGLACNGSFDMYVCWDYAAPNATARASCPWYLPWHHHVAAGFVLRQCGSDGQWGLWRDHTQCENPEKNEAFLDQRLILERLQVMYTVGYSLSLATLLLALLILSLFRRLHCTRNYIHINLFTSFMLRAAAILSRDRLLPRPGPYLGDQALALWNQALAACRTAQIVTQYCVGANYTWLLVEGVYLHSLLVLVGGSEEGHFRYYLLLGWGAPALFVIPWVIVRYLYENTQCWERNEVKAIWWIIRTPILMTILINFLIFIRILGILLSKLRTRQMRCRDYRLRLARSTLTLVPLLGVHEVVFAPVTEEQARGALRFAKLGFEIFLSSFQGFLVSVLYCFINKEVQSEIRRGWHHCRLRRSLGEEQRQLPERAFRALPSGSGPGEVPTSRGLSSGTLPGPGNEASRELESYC

SMILES | EC50 [1] [nM] | EC50 [2] [nM]
CC[C@H](C)[C@H](NC(=O)[C@H](CC(C)C)NC(=O)[C@](C)(Cc1ccccc1)NC(=O)[C@@H](CCC(=O)O)NC(=O)[C@@H](NC(=O)[C@H](Cc1ccccc1)NC(=O)[C@@H](NC(=O)C(C)(C)NC(=O)[C@H](CCC(N)=O)NC(=O)[C@H](C)NC(=O)[C@H](CCCCNC(=O)COCCOCCNC(=O)COCCOCCNC(=O)CC[C@H](NC(=O)CCCCCCCCCCCCCCCCCCC(=O)O)C(=O)O)NC(=O)[C@H](CCC(=O)O)NC(=O)[C@H](CC(=O)O)NC(=O)[C@H](CC(C)C)NC(=O)[C@](C)(CC(C)C)NC(=O)[C@@H](NC(=O)[C@H](CO)NC(=O)[C@H](Cc1c[nH]cn1)NC(=O)[C@H](CC(=O)O)NC(=O)[C@H](CO)NC(=O)[C@@H](NC(=O)[C@](C)(Cc1ccccc1F)NC(=O)[C@@H](NC(=O)CNC(=O)[C@H](CCC(=O)O)NC(=O)C(C)(C)NC(=O)[C@@H](N)Cc1ccc(O)cc1)[C@@H](C)O)[C@@H](C)O)[C@@H](C)CC)[C@@H](C)O)[C@@H](C)CC)C(=O)N[C@H](CCC(=O)O)C(=O)NCC(=O)NCC(=O)N1CCC[C@H]1C(=O)N[C@@H](CO)C(=O)N[C@@H](CO)C(=O)NCC(=O)N[C@@H](C)C(=O)N1CCC[C@H]1C(=O)N1CCC[C@H]1C(=O)N1CCC[C@H]1C(=O)N[C@@H](CO)C(N)=O [Example 165] (H-Y[Aib]EGT[αMePhe(2-F)]TSDHSI[αMeL]LDEK([AEEA-AEEA-γGlu-C20 diacid])AQ[Aib]TFI[dE][αMeF]LI[dE]GGPSSGAPPPS-NH2) | 5.81 | 1.04
CC[C@H](C)[C@H](NC(=O)[C@H](CC(C)C)NC(=O)[C@H](Cc1c[nH]cn1)NC(=O)[C@@H](CCC(=O)O)NC(=O)[C@@H](NC(=O)[C@H](Cc1ccccc1)NC(=O)[C@@H](NC(=O)C(C)(C)NC(=O)[C@H](CCC(N)=O)NC(=O)[C@H](C)NC(=O)[C@H](CCCCNC(=O)COCCOCCNC(=O)COCCOCCNC(=O)CC[C@H](NC(=O)CC[C@H](NC(=O)CCCCCCCCCCCCCCCCCCC(=O)O)C(=O)O)C(=O)O)NC(=O)[C@H](CCC(=O)O)NC(=O)[C@H](CC(=O)O)NC(=O)[C@H](CC(C)C)NC(=O)[C@](C)(CC(C)C)NC(=O)[C@@H](NC(=O)[C@H](CO)NC(=O)[C@H](Cc1c[nH]cn1)NC(=O)[C@H](CC(=O)O)NC(=O)[C@H](CO)NC(=O)[C@@H](NC(=O)[C@](C)(Cc1ccccc1F)NC(=O)[C@@H](NC(=O)CNC(=O)[C@H](CCC(=O)O)NC(=O)C(C)(C)NC(=O)[C@@H](N)Cc1ccc(O)cc1)[C@@H](C)O)[C@@H](C)O)[C@@H](C)CC)[C@@H](C)O)[C@@H](C)CC)C(=O)N[C@@H](CCC(=O)O)C(=O)NCC(=O)NCC(=O)N1CCC[C@H]1C(=O)N[C@@H](CO)C(=O)N[C@@H](CO)C(=O)NCC(N)=O [Example 162] (H-Y[Aib]EGT[αMePhe(2-F)]TSDHSI[αMeL]LDEK([AEEA-AEEA-γGlu-γGlu-C20 diacid])AQ[Aib]TFI[dE]HLIEGGPSSG-NH2; N-terminus assumed) | 36 | 4.56
CC[C@H](C)[C@H](NC(=O)[C@H](CCCCN)NC(=O)[C@H](CC(=O)O)NC(=O)[C@H](CC(C)C)NC(=O)[C@H](CC(C)C)NC(=O)[C@@H](NC(=O)[C@H](CO)NC(=O)[C@H](Cc1ccc(O)cc1)NC(=O)[C@H](CC(=O)O)NC(=O)[C@H](CO)NC(=O)[C@@H](NC(=O)[C@](C)(Cc1ccccc1)NC(=O)[C@@H](NC(=O)CNC(=O)[C@H](CCC(=O)O)NC(=O)C(C)(C)NC(=O)[C@@H](N)Cc1ccc(O)cc1)[C@@H](C)O)[C@@H](C)O)[C@@H](C)CC)C(=O)N[C@@H](C)C(=O)N[C@@H](CCC(N)=O)C(=O)NC(C)(C)C(=O)N[C@@H](C)C(=O)N[C@@H](Cc1ccccc1)C(=O)N[C@H](C(=O)N[C@@H](CCC(=O)O)C(=O)N[C@@H](Cc1ccc(O)cc1)C(=O)N[C@@H](CC(C)C)C(=O)N[C@H](C(=O)N[C@@H](CCCCNC(=O)COCCOCCNC(=O)COCCOCCNC(=O)CC[C@H](NC(=O)CCCCCCCCCCCCCCCCCCC(=O)O)C(=O)O)C(=O)NCC(=O)NCC(N)=O)[C@@H](C)CC)[C@@H](C)CC [Example 95] (H-Y[Aib]EGT[αMeF]TSDYSILLDKIAQ[Aib]AFIEYLIK([AEEA-AEEA-γGlu-C20 diacid])GG-NH2) | 1.01 | 1.17
CC[C@H](C)[C@H](NC(=O)[C@H](CCCCN)NC(=O)[C@H](CC(=O)O)NC(=O)[C@H](CCCCNC(=O)COCCOCCNC(=O)COCCOCCNC(=O)CC[C@H](NC(=O)CCCCCCCCCCCCCCCCCCC(=O)O)C(=O)O)NC(=O)[C@H](CC(C)C)NC(=O)[C@@H](NC(=O)[C@H](CO)NC(=O)[C@H](Cc1ccc(O)cc1)NC(=O)[C@H](CC(=O)O)NC(=O)[C@H](CO)NC(=O)[C@@H](NC(=O)[C@H](Cc1ccccc1)NC(=O)[C@@H](NC(=O)CNC(=O)[C@H](CCC(=O)O)NC(=O)C(C)(C)NC(=O)[C@@H](N)Cc1ccc(O)cc1)[C@@H](C)O)[C@@H](C)O)[C@@H](C)CC)C(=O)N[C@@H](C)C(=O)N[C@@H](CCC(N)=O)C(=O)NC(C)(C)C(=O)N[C@@H](C)C(=O)N[C@@H](Cc1ccccc1)C(=O)N[C@H](C(=O)N[C@@H](CCC(=O)O)C(=O)N[C@@H](Cc1ccc(O)cc1)C(=O)N[C@@H](CC(C)C)C(=O)N[C@H](C(=O)N[C@@H](CCC(=O)O)C(=O)NCC(=O)NCC(N)=O)[C@@H](C)CC)[C@@H](C)CC [Example 71] (H-Y[Aib]EGTFTSDYSILK([AEEA-AEEA-γGlu-C20 diacid])DKIAQ[Aib]AFIEYLIEGG-NH2) | 1.02 | 0.166
CC[C@H](C)[C@H](NC(=O)[C@H](CC(C)C)NC(=O)[C@](C)(Cc1ccc(O)cc1)NC(=O)[C@@H](CCC(=O)O)NC(=O)[C@@H](NC(=O)[C@H](Cc1ccccc1)NC(=O)[C@H](CCC(=O)O)NC(=O)C(C)(C)NC(=O)[C@H](CCC(N)=O)NC(=O)[C@H](C)NC(=O)[C@H](CCC(N)=O)NC(=O)[C@H](CCCN)NC(=O)[C@H](CC(=O)O)NC(=O)[C@H](CC(C)C)NC(=O)[C@](C)(CC(C)C)NC(=O)[C@@H](NC(=O)[C@H](CO)NC(=O)[C@H](Cc1ccncc1)NC(=O)[C@H](CC(=O)O)NC(=O)[C@H](CO)NC(=O)[C@@H](NC(=O)[C@](C)(Cc1ccccc1F)NC(=O)[C@@H](NC(=O)CNC(=O)[C@H](CCC(=O)O)NC(=O)C(C)(C)NC(=O)[C@@H](N)Cc1ccc(O)cc1)[C@@H](C)O)[C@@H](C)O)[C@@H](C)CC)[C@@H](C)CC)C(=O)N[C@@H](CCC(=O)O)C(=O)NCC(=O)NCC(=O)N1CCC[C@H]1C(=O)N[C@@H](CO)C(=O)N[C@@H](CO)C(=O)NCC(=O)N[C@@H](C)C(=O)N1CCC[C@H]1C(=O)N1CCC[C@H]1C(=O)N1CCC[C@H]1C(=O)N[C@@H](CO)C(=O)N[C@@H](CS)C(N)=O [Example 287] (H-Y[Aib]EGT[αMePhe(2-F)]TSD[4Pal]SI[αMeL]LD[Orn]QAQ[Aib]EFI[dE][αMeY]LIEGGPSSGAPPPSC-NH2) | 0.112 | 0.15
